Target: T1, ΔF508-CFTR (Homo sapiens, UniProt P13569, DEL508-508)
T1 construct: expressed in transfected cells
Assay: Membrane potential optical assay (FRET/VIPR), identification of correction compounds
Type: cell-based
Settings: for Emax: relative efficacy
Summary of the method: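 NIH3T3 cells stably expressing ΔF508-CFTR incubated 16 hrs at 37° C in serum-free medium with test compound; 27° C incubation as positive control. CFTR then activated with 10 μM forskolin plus 20 μM genistein in Cl^−-free medium; depolarization read by DiSBAC2(3)/CC2-DMPE FRET on VIPR.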

T1 sequence (P13569 with tags, fused parts or gaps DEL508-508): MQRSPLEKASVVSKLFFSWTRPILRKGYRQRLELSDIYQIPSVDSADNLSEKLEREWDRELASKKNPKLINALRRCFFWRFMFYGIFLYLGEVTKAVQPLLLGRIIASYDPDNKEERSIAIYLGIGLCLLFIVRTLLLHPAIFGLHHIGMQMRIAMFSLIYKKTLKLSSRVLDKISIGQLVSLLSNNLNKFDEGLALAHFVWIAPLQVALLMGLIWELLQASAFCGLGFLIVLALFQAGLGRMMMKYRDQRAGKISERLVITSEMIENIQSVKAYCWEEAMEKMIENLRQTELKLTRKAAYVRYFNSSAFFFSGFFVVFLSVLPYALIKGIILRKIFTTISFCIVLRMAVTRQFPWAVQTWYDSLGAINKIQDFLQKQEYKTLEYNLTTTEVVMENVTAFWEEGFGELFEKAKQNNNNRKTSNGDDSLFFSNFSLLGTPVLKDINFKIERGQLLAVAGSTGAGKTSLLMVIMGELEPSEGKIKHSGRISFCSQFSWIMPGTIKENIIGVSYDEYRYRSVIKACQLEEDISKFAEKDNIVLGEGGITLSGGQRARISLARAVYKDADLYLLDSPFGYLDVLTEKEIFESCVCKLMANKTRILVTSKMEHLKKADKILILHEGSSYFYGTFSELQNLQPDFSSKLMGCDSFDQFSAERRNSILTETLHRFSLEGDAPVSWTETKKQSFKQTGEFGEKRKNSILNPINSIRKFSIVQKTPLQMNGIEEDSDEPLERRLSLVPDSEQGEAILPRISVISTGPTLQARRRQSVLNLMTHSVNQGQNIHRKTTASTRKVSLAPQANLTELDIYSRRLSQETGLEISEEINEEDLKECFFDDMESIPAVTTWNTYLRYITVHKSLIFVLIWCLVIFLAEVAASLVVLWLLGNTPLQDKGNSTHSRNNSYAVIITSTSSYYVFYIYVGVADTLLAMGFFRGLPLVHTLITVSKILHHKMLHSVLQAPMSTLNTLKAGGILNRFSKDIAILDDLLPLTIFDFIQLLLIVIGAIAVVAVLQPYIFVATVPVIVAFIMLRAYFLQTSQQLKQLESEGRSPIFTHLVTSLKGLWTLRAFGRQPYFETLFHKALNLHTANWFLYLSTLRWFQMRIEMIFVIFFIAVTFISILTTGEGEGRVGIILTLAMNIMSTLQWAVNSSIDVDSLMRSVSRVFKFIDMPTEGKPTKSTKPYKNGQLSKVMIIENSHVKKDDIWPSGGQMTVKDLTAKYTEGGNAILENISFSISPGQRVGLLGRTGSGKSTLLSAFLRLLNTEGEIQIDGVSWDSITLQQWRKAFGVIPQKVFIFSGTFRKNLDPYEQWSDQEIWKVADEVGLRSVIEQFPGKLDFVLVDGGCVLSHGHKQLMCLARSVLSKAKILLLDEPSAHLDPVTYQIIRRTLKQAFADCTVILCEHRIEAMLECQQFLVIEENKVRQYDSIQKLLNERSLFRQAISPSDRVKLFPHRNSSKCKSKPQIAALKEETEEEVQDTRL

Row | SMILES | EC50 [µM] | Emax [%]
1 | COc1ccc(S(=O)(=O)N2CCN(C(C)c3nc(N4CCN(C(C)=O)CC4)c4ccccc4n3)CC2)cc1 (centres unmarked) [compound 369] | 25 to 60 | 25 to 100
2 | COc1ccc(S(=O)(=O)N2CCN(C(C)c3nc(N4CCC(C(=O)O)CC4)c4ccccc4n3)CC2)cc1 (centres unmarked) [compound 370] | 25 to 60 | < 25
3 | COc1ccc(S(=O)(=O)N2CCN(C(C)c3nc(N4CCCCC4)c4cc(F)ccc4n3)CC2)cc1 (centres unmarked) [compound 371] | < 10 | > 100
4 | COc1ccc(S(=O)(=O)N2CCN(C(C)c3nc(N4CCC(C)CC4)c4cc(F)ccc4n3)CC2)cc1 (centres unmarked) [compound 372] | 10 to 25 | > 100
5 | COc1ccc(S(=O)(=O)N2CCN(C(C)c3nc(NC4CCCCC4)c4cc(F)ccc4n3)CC2)cc1 (centres unmarked) [compound 373] | 10 to 25 | 25 to 100
6 | COc1ccc(S(=O)(=O)N2CCN(C(C)c3ncc(-c4ccccc4)c(N4CCCCC4)n3)CC2)cc1 (centres unmarked) [compound 376] | < 10 | 25 to 100
7 | COc1ccc(S(=O)(=O)N2CCN(C(C)c3nc4ccc(F)cc4c(=O)[nH]3)CC2)cc1 (centres unmarked) [compound 377] | 25 to 60 | 25 to 100
8 | COc1ccc(S(=O)(=O)N2CCN(C(C)c3ncc(Br)c(=O)[nH]3)CC2)cc1 (centres unmarked) [compound 378] | 25 to 60 | < 25
9 | C[C@H](c1nc(N2CCCCC2)c2ccccc2n1)N1CCN(S(=O)(=O)c2ccc(Cl)cc2)CC1 [compound 379] | < 10 | > 100
10 | C[C@@H](c1nc(N2CCCCC2)c2ccccc2n1)N1CCN(S(=O)(=O)c2ccc(Cl)cc2)CC1 [compound 380] | < 10 | > 100
11 | COc1ccc(S(=O)(=O)N2CCN(C(C)c3nc(N4CCCc5ccccc54)c4ccccc4n3)CC2)cc1 (centres unmarked) [compound 388] | < 10 | > 100
12 | COc1ccc(S(=O)(=O)N2CCN(C(C)c3nc(N4CCC(Cc5ccccc5)CC4)c4ccccc4n3)CC2)cc1 (centres unmarked) [compound 389] | < 10 | > 100
13 | COc1ccc(S(=O)(=O)N2CCN(C(C)c3nc(N4CCN(c5ccccc5)CC4)c4ccccc4n3)CC2)cc1 (centres unmarked) [compound 390] | < 10 | > 100
14 | COc1ccc(S(=O)(=O)N2CCN(C(C)c3nc(N4CC=CC4)c4ccccc4n3)CC2)cc1 (centres unmarked) [compound 391] | 10 to 25 | > 100
15 | COc1ccc(S(=O)(=O)N2CCN(C(C)c3nc(N4CC=CCC4)c4ccccc4n3)CC2)cc1 (centres unmarked) [compound 392] | < 10 | > 100
16 | COc1ccc(S(=O)(=O)N2CCN(C(C)c3nc(N4CCSC4)c4ccccc4n3)CC2)cc1 (centres unmarked) [compound 393] | 10 to 25 | > 100

Results, then the molecule that gave them:

Row | EC50 [µM] | Emax [%] | SMILES
17 | < 10 | 25 to 100 | COc1ccc(S(=O)(=O)N2CCN(C(C)c3nc(OC4CCCCC4)c4cc(F)ccc4n3)CC2)cc1 (centres unmarked) [compound 374]
18 | < 10 | > 100 | COc1ccc(S(=O)(=O)N2CCN(C(C)c3nc(OC4CCCC4)c4cc(F)ccc4n3)CC2)cc1 (centres unmarked) [compound 375]
19 | < 10 | > 100 | COc1ccc(S(=O)(=O)N2CCN(C(C)c3ncc(Br)c(OC4CCCC4)n3)CC2)cc1 (centres unmarked) [compound 381]
20 | 10 to 25 | 25 to 100 | COc1ccc(S(=O)(=O)N2CCN(C(C)c3nccc(OC4CCCC4)n3)CC2)cc1 (centres unmarked) [compound 382]
21 | 25 to 60 | < 25 | COc1ccc(S(=O)(=O)N2CCN(Cc3nc4ccccc4c(=O)[nH]3)CC2)cc1 [compound 383]
22 | 10 to 25 | > 100 | COc1ccc(S(=O)(=O)N2CCN(Cc3nc(N4CCCCC4)c4ccccc4n3)CC2)cc1 [compound 384]
23 | < 10 | > 100 | COc1ccc(S(=O)(=O)N2CCN(Cc3nc(OC4CCCCC4)c4ccccc4n3)CC2)cc1 [compound 385]
24 | < 10 | > 100 | COc1ccc(S(=O)(=O)N2CCN(Cc3nc(OC4CCCC4)c4ccccc4n3)CC2)cc1 [compound 386]
25 | < 10 | > 100 | COc1ccc(S(=O)(=O)N2CCN(C3(c4nc(N5CCCCC5)c5ccccc5n4)CC3)CC2)cc1 [compound 387]

Source: patent US8642609B2, “Modulators of ATP-binding cassette transporters” (Vertex Pharmaceuticals Incorporated, priority 2003, dated 2014)
